Test results as given in patent US20050042213A1, “Methods and pharmaceutical compositions for modulating heparanase activation and uses thereof” (InSight Biopharmaceuticals Ltd., priority 2003, published 2005).

Tests used:
pro-heparanase (H60) [1] = target: T1, pro-heparanase (H60) (Homo sapiens, UniProt Q9Y251, K307R); assay: Circular dichroism spectrometry of pro-heparanase; conditions: data not shown
T1 sequence (Q9Y251 36-543 K307R): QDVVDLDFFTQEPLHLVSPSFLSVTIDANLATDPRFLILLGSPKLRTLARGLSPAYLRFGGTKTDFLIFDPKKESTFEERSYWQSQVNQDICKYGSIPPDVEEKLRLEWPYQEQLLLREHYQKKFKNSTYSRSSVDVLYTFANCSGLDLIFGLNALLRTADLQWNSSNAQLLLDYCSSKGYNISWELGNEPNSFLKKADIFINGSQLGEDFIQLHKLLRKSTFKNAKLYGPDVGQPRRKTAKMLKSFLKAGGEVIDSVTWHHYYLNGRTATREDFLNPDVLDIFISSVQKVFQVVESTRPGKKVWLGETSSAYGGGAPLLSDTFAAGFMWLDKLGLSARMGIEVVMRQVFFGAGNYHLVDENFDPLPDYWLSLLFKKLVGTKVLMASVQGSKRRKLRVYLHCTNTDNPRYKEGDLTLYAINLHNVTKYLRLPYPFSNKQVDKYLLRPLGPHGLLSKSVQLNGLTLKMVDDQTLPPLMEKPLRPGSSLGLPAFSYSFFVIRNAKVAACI
Protocol: Circular Dichroism spectrometry—Circular Dichroism spectra were recorded using a JASCO 500 spetropolarimeter. Far Ultraviolet measurements (260-200 nm) were performed in a 0.1 mm demountable cuvette at 25° C., scanning at a rate of 10 nm/min. Pro-heparanase was assayed at a concentration of 0.72 mg/ml in 20 mM sodium phosphate buffer pH 6.8 supplemented with 300 mM NaCl. Effect of heparin on pro-heparanase spectra was determined at a concentration of 100 μM, and the inhibitor was added at a concentration of 15 μM. Base-line recordings were performed in the presence and absence of heparin to correct the pro-heparanase spectra.

pro-heparanase (H60) [2] = target: T1, pro-heparanase (H60); assay: Pro-heparanase activation in a cell-based assay (293 cells, DMB assay); conditions: inhibition of pro-heparanase activation (H60); Table 15
[3] = target: T2, pro-heparanase transiently expressed in 293 cells (Homo sapiens, UniProt Q9Y251, K307R); assay: Pro-heparanase processing in transiently transfected 293 cells (Western blot); assay type: cell-based
T2 sequence (Q9Y251 36-543 K307R): T1 sequence (Q9Y251 36-543 K307R)
Protocol: Western blot analysis—Western blot analysis was performed using rabbit anti-heparanase polyclonal antibodies as described in U.S. Pat. Nos. 6,177,545; 6,531,129; and 6,562,950.
Transient transfections—293 cells (200,000) were plated onto a 6 well tissue culture plate. 24 hrs later, the cells were transfected with 1 μg pSI (Promega) hpa plasmid (U.S. Pat. No. 6,475,763) in 3 μl Fugene reagent that was pre-incubated for 15 min in 100 μl medium without serum. Cells were treated with inhibitors 4 and 17 hrs following transfection.

β-FGF = target: T3, β-FGF (Homo sapiens, UniProt P09038); assay: Elisa assay for binding of β-FGF to heparin; conditions: inhibition of β-FGF binding to heparin
T3 construct: purchased Sigma F0291
Protocol: Elisa assay for determination of binding of β-FGF to heparin—96 well microplates were coated overnight with Heparin-albumin (Lizard) and blocked with 1% BSA in PBS with 0.05% Tween and 0.01% thimerosal for 2 hrs. β-FGF was added to the plates at a concentration of 0.8 ng/ml and incubated for 45 min at 23-25° C. The amount of β-FGF bound to heparin was detected using anti-FGF monoclonal antibody (Sigma Cat. # F6162) at a concentration of 2.5 ng/ml and secondary antibodies Sheep anti-mouse IgG linked to horseradish peroxidase (1:3000). TMB (Pierce Cat. #34021) was used as a substrate for peroxidase.
The plates were read at 450 nm with a reference wavelength of 630 nm using a VERSAmax plate reader. […] Percent inhibition was calculated as compared with the control reactions pre-incubated with 1% DMSO only.

heparanase (H53) = target: T4, heparanase (H53) (Homo sapiens, UniProt Q9Y251, K307R); assay: Heparanase activity inhibition (H53), DMB assay; assay type: biochemical
T4 sequence (Q9Y251 158-543 K307R limits assumed): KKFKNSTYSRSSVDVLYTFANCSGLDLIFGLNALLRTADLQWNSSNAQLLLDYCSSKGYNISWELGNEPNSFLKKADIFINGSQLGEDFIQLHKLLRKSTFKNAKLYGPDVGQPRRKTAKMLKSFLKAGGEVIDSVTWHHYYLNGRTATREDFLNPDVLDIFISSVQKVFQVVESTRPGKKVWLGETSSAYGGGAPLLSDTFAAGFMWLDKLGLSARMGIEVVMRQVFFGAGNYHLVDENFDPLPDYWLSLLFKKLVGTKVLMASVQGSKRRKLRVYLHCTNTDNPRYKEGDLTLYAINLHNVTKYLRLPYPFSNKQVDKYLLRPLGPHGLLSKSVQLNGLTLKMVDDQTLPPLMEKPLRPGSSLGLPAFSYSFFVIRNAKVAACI
T4 sequence (Q9Y251 36-109 limits assumed): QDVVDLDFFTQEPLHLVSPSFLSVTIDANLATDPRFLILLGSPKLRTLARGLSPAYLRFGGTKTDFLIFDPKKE
Protocol: At the end of the incubation, the cells were lysed by three consecutive cycles of freezing and thawing in a −80° C. Freezer and a 37° C. shaker. Formation of active heparanase was detected by determination of heparanase activity in DMB assay as described in patent application U.S. Pat. No. 6,190,875B.

HUVEC cells = assay: Cord Formation Assay; assay type: cell-based; conditions: Homo sapiens; HUVEC cells on matrigel, 24 h; read-out: Inhibition of cord formation IC50
Protocol: Cord formation and cell migration assays were executed following explicit directives provided by the inventors of the present invention by the National Cancer Institute (Biological Testing Branch, Developmental Therapeutics Program, DCTD, NCI, Fairview Center, Suite 205, 1003 West 7th Street, Frederick, Md. 21701-8527).
Cord Formation Assay—Matrigel (60 μl of 10 mg/ml; Collaborative Lab # 35423) was placed in each well of an ice-cold 96-well plate. The plate was incubated at room temperature for 15 minutes and then transferred to 37° C. for 30 minutes to permit matrigel polymerization. Concomitantly with plate coating, HUVEC cells were diluted in EGM-2 (Clonetic # CC3162) at a concentration of 2×10^5 cells/ml. Each test compound was prepared at a 2 fold higher concentration than desired (5 concentration levels) using the same medium. Cells (500 μl) and 2× drug (500 μl) were mixed and 200 μl of this suspension were placed in duplicates on the polymerized matrigel. Following 24 h incubation, triplicate pictures were taken for each concentration using a Bioquant Image Analysis system. Drug effect (IC50) was assessed by comparing to untreated controls and measuring the length of cords formed and number of junctions.

T3 sequence (P09038 143-288): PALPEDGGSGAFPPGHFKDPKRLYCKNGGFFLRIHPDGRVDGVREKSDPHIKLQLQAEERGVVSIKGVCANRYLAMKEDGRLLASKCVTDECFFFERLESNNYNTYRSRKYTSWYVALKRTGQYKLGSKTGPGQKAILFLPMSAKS

O=C(O)CCCN1C(=O)C(=Cc2ccc(-c3ccc([N+](=O)[O-])cc3)o2)SC1=S [Compound 5]
change in conformation of H60 induced by heparin (pro-heparanase (H60) [1]): prevents the change in conformation | IC50 (pro-heparanase (H60) [2]): 130 nM | pro-heparanase expression [3]: did not affect pro-heparanase expression | pro-heparanase processing [3]: completely inhibited pro-heparanase processing | IC50 (β-FGF): 6.1 µM | heparanase activity inhibition (H53) in addition to inhibition of pro-heparanase activation (heparanase (H53)): dual activity | IC50 (heparanase (H53); heparanase activity inhibition (H53), NI = no inhibition): 12.5 µM | IC50 (HUVEC cells): 3.9 µM
